Assay results: the METLIN SMRT retention time set (Domingo-Almenara et al. 2019)

Experiment: gradient 5% acetonitrile 3 min, to 50% in 2 min, to 85% in 15 min, held 3 min, 100 µL/min
Conditions: column: Zorbax Extend-C18 2.1 x 50 mm; eluents: water / acetonitrile, 0.1% formic acid
In short: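 Over 3 months, pure standards in mixtures of ~100 molecules were run by HPLC coupled to a quadrupole time-of-flight mass spectrometer in positive and negative ionization mode. The column was a Zorbax Extend-C18 (2.1 × 50 mm, 1.8 μm) at 100 μL/min, eluted with water and acetonitrile each holding 0.1% formic acid, with 40 μL dead and 900 μL dwell volumes. Retention time was determined from adduct peaks chosen by software and checked manually.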

Row | RP-LC retention time | Structure (SMILES)
1 | 1330 s | CCCCC(=O)N(CC)c1nc(-c2ccccc2)cs1
2 | 654 s | Cn1c(C2CCN(C(=O)Nc3ccccc3C(F)(F)F)CC2)cc(=O)n2nccc12
3 | 965 s | COc1ccc(-c2nc3cnccn3c2Nc2cccc(Cl)c2C)cc1
4 | 1050 s | CCn1cc(-c2nc(C(=O)Nc3ccc(C#N)cc3)cs2)c2cccnc21
5 | 1180 s | O=C(C1CCCCC1)N1CCc2nc(-c3ccc(Cl)cc3)ncc2C1
6 | 784 s | CC(C)CN1C(=O)c2cccn2CC1CNC(=O)CC1CCCC1 (configuration not stated)
7 | 815 s | COc1ccc(NC(=O)Nc2cccn3c(C4CCC4)nnc23)cc1F
8 | 601 s | COc1ccc(-n2c(N)cc(=O)nc2SCC(=O)NC2CCCCC2)cc1
9 | 820 s | O=C(NCCc1ccccc1)N1C[C@@H]2C[C@H]1C[C@@H]2NS(=O)(=O)c1ccccc1
10 | 861 s | Cc1ccc(C)c(S(=O)(=O)N2CCC(N3CCN(Cc4ccccc4)C(=O)C3=O)CC2)c1
11 | 794 s | O=C(Cc1ccc(F)cc1)N(CC1CCOC1)C1CC1 (configuration not stated)
12 | 864 s | CCOc1ccc(N2C(=O)N[C@@H]3C[C@]2(C)Oc2ccc(OC)cc23)cc1
13 | 790 s | O=C(C1CCCCC1)N1CCN(c2ccc(=O)n(-c3ccccc3)n2)CC1
14 | 872 s | Cc1nc(Nc2ccc(F)cn2)sc1C(=O)N1CCc2ccccc2C1
15 | 1060 s | CCOC(=O)c1ccccc1NC(=O)Cn1c(=O)n(-c2ccc(C)cc2)c(=O)c2c1cc(C)n2C
16 | 1170 s | Cc1ccc(Cn2c(N3CCCC(C(=O)Nc4ccc(C)c(F)c4)C3)nc3ccsc3c2=O)cc1 (configuration not stated)
17 | 916 s | Cc1ccccc1CNC(=O)CN1C(=O)CSc2cccn2-c2ccccc21
18 | 968 s | COC(=O)c1c(-c2cccc(F)c2)noc1NCCc1c(C)noc1C
19 | 551 s | CC(C)NC(=O)CCC1CCN(c2cc(NC3CC3)ncn2)CC1
20 | 642 s | COc1cc(Cl)c(NC(=O)C2CCCN(C(=O)c3cc(-c4ccncc4)n[nH]3)C2)c(OC)c1 (configuration not stated)
21 | 988 s | Cc1cc(C)c(-c2nnc(NC(=O)c3ccccc3Br)s2)c(C)c1
22 | 869 s | CCCN(CC1CCOC1)C(=O)Nc1ccc(C)c(C)c1 (configuration not stated)
23 | 786 s | O=C(NCc1ccc(-c2noc(-c3n[nH]c4c3CCCC4)n2)s1)C1CC1

Row | RP-LC retention time | Structure (SMILES)
24 | 1090 s | O=C(Cn1cccc1-c1nc(-c2ccccc2)no1)Nc1ccc2c(c1)OCCO2
25 | 804 s | O=C(c1ccc(-c2ccc3c(c2)CCN3C(=O)Nc2ccc3c(c2)OCCO3)cc1)N1CCOCC1
26 | 748 s | COc1ccc(CNC(=O)CCc2nc3ccc(C)cc3c(=O)n2C)cc1
27 | 785 s | COc1ccc(C(CC(=O)N2CCCCCC2)N2Cc3ccccc3C2=O)cc1OC (configuration not stated)
28 | 742 s | COc1ccc(NC(=O)C2CC(=O)N(c3ccc4oc(C)nc4c3)C2)cc1Cl (configuration not stated)
29 | 780 s | CC(=O)c1cccc(NC(=O)CN2C(=O)C3CCCCN3c3ccc(C(=O)N4CCCC4)cc32)c1 (configuration not stated)
30 | 963 s | O=C(NCc1ccc(F)cc1)C1CCCN(c2nc3ccsc3c(=O)n2Cc2ccc(F)cc2)C1 (configuration not stated)
31 | 886 s | Cc1ccc(S(=O)(=O)N(C)CC2CCOCC2)cc1C
32 | 610 s | COCCN1C(=O)c2cccn2CC1CNC(=O)c1cnc(C)cn1 (configuration not stated)
33 | 898 s | CN1C(=O)c2cc(C(=O)Nc3ccc(Cl)cc3)nn2CC1(C)C(=O)NC1CCCCC1 (configuration not stated)
34 | 626 s | Cc1nccn1CC(=O)N1CCCn2cc(-c3cccc(C#N)c3)nc21
35 | 1020 s | CCOC(=O)c1cc(S(=O)(=O)N2CCCC2C(=O)N2CCC(Cc3ccccc3)CC2)cn1C (configuration not stated)
36 | 673 s | O=C(O)c1[nH]nc2c1COc1ccccc1-2
37 | 721 s | O=C(CSCc1ccccc1)N1CCC(Cn2cccn2)CC1
38 | 818 s | Cc1ccccc1N1C(=O)CN(S(C)(=O)=O)CC1(C)C(=O)NCc1ccc(F)cc1 (configuration not stated)
39 | 644 s | CNC(=O)c1ccc2c(c1)CCN2C(=O)C(C)C
40 | 785 s | COC(=O)c1c(C)[nH]c(C(=O)N2CCC(CC(=O)NCCc3c[nH]c4ccc(Cl)cc34)CC2)c1C
41 | 942 s | Cc1ccccc1CNS(=O)(=O)c1cc2c(s1)CCN(C(=O)C1CCC1)C2
42 | 725 s | Cc1noc(-c2nn(C)c3c2CN(C(=O)Nc2ccccc2Cl)CC3)n1
43 | 1140 s | Cc1cc(F)ccc1NC(=O)c1cc(C(C)C)n2nccc2n1
44 | 1150 s | CCC(CC)C(c1ccc(Nc2nc3ccccc3s2)cc1)n1cncn1 (configuration not stated)
45 | 793 s | COC(=O)Cn1c(C)cc(=O)n2nc(-c3ccc(Cl)cc3)nc12
46 | 1090 s | Cc1ccc2oc(=O)n(Cc3noc(C(=O)NCCC4=CCCCC4)n3)c2c1

Row | RP-LC retention time | Structure (SMILES)
47 | 956 s | COc1cccc(-n2c(=O)c3sccc3n(Cc3nc(-c4ccccc4)no3)c2=O)c1
48 | 904 s | Cc1ccc(CNC(=O)Cn2cccc2-c2nnc(C3CCC3)o2)cc1
49 | 666 s | CC(=O)N1CCc2nn(CC(=O)Nc3cccc(Br)c3)c(=O)cc2C1
50 | 732 s | Cc1noc(C)c1CCNC(=O)CCCN1C(=O)CCn2nc(-c3cn(C)c4ccccc34)cc21
51 | 739 s | Cc1ccc(-c2ncccc2CNS(=O)(=O)Cc2cc(F)cc(F)c2)cc1
52 | 832 s | CN(Cc1cc(Br)cc(Br)c1N)C1CCCCC1
53 | 854 s | CCn1cc(SCC(=O)NCc2ccc3c(c2)OCO3)c2ccccc21
54 | 897 s | Cc1cc(-c2nnc(C3CCC3)o2)c(C)n1CC(=O)NCc1cccc(Cl)c1
55 | 747 s | Nc1cc(C2CCN(C(=O)/C=C/c3ccccc3Cl)CC2)no1
56 | 1110 s | O=C(Nc1ccc(Cl)cc1)C1CCCN(c2nc3ccsc3c(=O)n2Cc2ccc(F)cc2)C1 (configuration not stated)
57 | 859 s | COc1ccc(-c2noc(C3CCCN3C(=O)Nc3cc(C)ccc3OC)n2)cc1 (configuration not stated)
58 | 705 s | CN(C)c1cccc(C(=O)NC2CCN(c3ccc(F)cc3)C2=O)c1 (configuration not stated)
59 | 674 s | Cn1nc(C(=O)N2CCOCC2)c2c1CCN(C(=O)Nc1ccccc1Cl)C2
60 | 1090 s | Cc1ccc(S(=O)(=O)N2CCC(C(=O)N3CCCC3c3nc(-c4ccccc4C)no3)CC2)cc1 (configuration not stated)
61 | 842 s | COc1ccc(NC(=O)Cn2c(=O)n(-c3ccccc3)c(=O)c3c2cc(C)n3C)cc1Cl
62 | 863 s | O=C(NCc1ccsc1)NC(c1ccccc1)c1ccccc1
63 | 957 s | O=C(Nc1ccccc1)c1cc(C2CC2)n2nccc2n1
64 | 670 s | CN1CCCn2cc(S(=O)(=O)Nc3ccc(F)cc3)cc2C1=O
65 | 825 s | Cc1noc(C)c1Cc1ccc(C(=O)N2CCCC2c2nc(CCOCC3CC3)no2)o1 (configuration not stated)
66 | 644 s | O=C(O)c1cn2ccnc(-c3ccccc3)c2n1
67 | 650 s | CCOC(=O)c1[nH]c(C)c(CCC(=O)N2CCC(C(=O)NC3CC3)CC2)c1C
